How the values were obtained:
[1] = biological target: T1, human recombinant serotonin (5-Hydroxytryptamine) 5-HT2A receptor (Homo sapiens, UniProt P28223); assay: Serotonin 5-HT2A radioligand binding ([3H]Ketanserin); settings: compound at 0.1 μM; read-out: Inhibition of ligand binding, Serotonin 5-HT2A (percent inhibition of specific binding)
T1 construct: expressed in transfected cells; host or cells: CHO-K1
Description: Compounds of the invention were incubated with 0.5 nM [^3H]Ketanserin for 60 min at 25° C. Non-specific binding was estimated in the presence of 1 μM Mianserin. Receptor proteins were filtered and washed, the filters were then counted to determine [^3H]Ketanserin specifically bound.

[2] = biological target: T2, human recombinant serotonin (5-Hydroxytryptamine) 5-HT2C receptor (Homo sapiens, UniProt P28335); assay: Serotonin 5-HT2C radioligand binding ([3H]Mesulergine); settings: compound at 0.1 μM; read-out: Inhibition of ligand binding, Serotonin 5-HT2C (percent inhibition of specific binding)
T2 construct: expressed in transfected cells; host or cells: CHO-K1
T2 sequence (P28335 33-458): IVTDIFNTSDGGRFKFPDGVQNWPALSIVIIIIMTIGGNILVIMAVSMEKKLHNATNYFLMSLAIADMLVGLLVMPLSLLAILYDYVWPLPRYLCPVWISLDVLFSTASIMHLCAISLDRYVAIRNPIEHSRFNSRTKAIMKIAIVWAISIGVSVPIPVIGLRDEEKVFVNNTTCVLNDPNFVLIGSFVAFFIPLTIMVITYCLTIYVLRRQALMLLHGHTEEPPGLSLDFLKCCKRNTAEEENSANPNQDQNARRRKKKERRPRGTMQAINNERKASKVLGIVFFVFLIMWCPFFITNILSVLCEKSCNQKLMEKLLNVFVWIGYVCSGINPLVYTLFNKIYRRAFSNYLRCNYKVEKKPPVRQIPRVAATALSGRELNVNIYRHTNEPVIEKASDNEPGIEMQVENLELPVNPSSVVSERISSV
Description: Compounds of the invention were incubated with 1 nM [^3H]Mesulergine for 60 min at 25° C. Non-specific binding was estimated in the presence of 1 μM Mianserin. Receptor proteins were filtered and washed, the filters were then counted to determine [^3H]Mesulergine specifically bound.

[3] = biological target: T3, human recombinant histamine H1 receptor (Homo sapiens, UniProt P35367); assay: Histamine H1 radioligand binding ([3H]Pyrilamine); settings: read-out: Histamine H1 Binding (1 μM), percent inhibition of specific binding; compound at 1 μM; 1.2 nM [3H]Pyrilamine
T3 construct: expressed in transfected cells; host or cells: CHO-K1
Summary of the method: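 Results expressed as percent inhibition of specific [3H]pyrilamine binding, counted on filters after washing. Receptor source: CHO-K1 cells expressing recombinant human H1, in modified Tris-HCl buffer (50 mM, pH 7.4; 2 mM MgCl2, 100 mM NaCl, 250 mM sucrose). 1 μM pyrilamine defined non-specific binding.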

[4] = biological target: T4, human recombinant serotonin (5-Hydroxytryptamine) 5-HT7 receptor (Homo sapiens, UniProt P34969); assay: Serotonin 5-HT7 radioligand binding ([3H]LSD); settings: compound at 0.1 μM; read-out: Inhibition of ligand binding, Serotonin 5-HT7 (percent inhibition of specific binding)
T4 construct: expressed in transfected cells; host or cells: CHO
Description: Lysergic acid diethylamide (LSD) for 120 min. at 25° C. […] Receptor proteins were filtered and washed, the filters were then counted to determine [^3H]LSD specifically bound.

[5] = biological target: T5, human recombinant serotonin (5-Hydroxytryptamine) 5-HT6 receptor (Homo sapiens, UniProt P50406); assay: Serotonin 5-HT6 radioligand binding ([3H]LSD); settings: compound at 0.1 μM; read-out: Inhibition of ligand binding, Serotonin 5-HT6 (percent inhibition of specific binding)
T5 construct: expressed in transfected cells; host or cells: HeLa
Description: Receptor proteins were filtered and washed, the filters were then counted to determine [3H]LSD specifically bound.

[6] = biological target: T6, human recombinant serotonin (5-Hydroxytryptamine) 5-HT5A receptor (Homo sapiens, UniProt P47898); assay: Serotonin 5-HT5A radioligand binding ([3H]LSD); settings: compound at 0.1 μM; read-out: Inhibition of ligand binding, Serotonin 5-HT5A (percent inhibition of specific binding)
T6 construct: expressed in transfected cells; host or cells: CHO-K1
Description: Compounds of the invention were incubated with 1.7 nM [^3H]Lysergic acid diethylamide (LSD) for 60 min at 37° C. […] Receptor proteins were filtered and washed, the filters were counted to determine [^3H]LSD specifically bound.

[7] = biological target: T7, human recombinant dopamine D2L receptor (Homo sapiens, UniProt P14416); assay: Dopamine D2L radioligand binding ([3H]Spiperone); settings: read-out: Dopamine D2L (1 μM), percent inhibition of specific binding; compound at 1 μM; 0.16 nM [3H]Spiperone
T7 construct: expressed in transfected cells; host or cells: CHO
Description: Non-specific binding was estimated in the presence of 10 μM Haloperidol. Receptor proteins were filtered and washed, the filters were then counted to determine [^3H]Spiperone specifically bound.

[8] = biological target: T8, human recombinant adrenergic α2C receptor (Homo sapiens, UniProt P18825); assay: Adrenergic α2C radioligand binding ([3H]MK-912); settings: read-out: Adrenergic (0.1 μM) a2C, percent inhibition of specific binding; compound at 0.1 μM; 1 nM [3H]MK-912
T8 construct: expressed in transfected cells; host or cells: insect Sf9 cells
T8 sequence (P18825 1-462): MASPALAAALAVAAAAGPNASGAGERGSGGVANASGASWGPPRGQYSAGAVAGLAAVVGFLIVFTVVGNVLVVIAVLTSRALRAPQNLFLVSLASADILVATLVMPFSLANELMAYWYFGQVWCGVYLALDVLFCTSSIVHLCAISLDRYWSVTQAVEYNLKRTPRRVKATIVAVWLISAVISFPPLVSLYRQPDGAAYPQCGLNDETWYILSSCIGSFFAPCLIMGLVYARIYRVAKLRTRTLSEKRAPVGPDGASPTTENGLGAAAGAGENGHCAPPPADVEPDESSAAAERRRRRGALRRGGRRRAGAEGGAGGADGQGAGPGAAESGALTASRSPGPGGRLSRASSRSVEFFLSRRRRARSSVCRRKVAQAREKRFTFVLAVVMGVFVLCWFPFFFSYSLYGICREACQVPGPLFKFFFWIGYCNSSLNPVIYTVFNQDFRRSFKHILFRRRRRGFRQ
Summary of the method: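 Membranes from Sf9 cells expressing the human receptor, in 50 mM Tris-HCl pH 7.4 with 12.5 mM MgCl2 and 2 mM EDTA, incubated with compound and 1 nM [3H]MK-912 for 60 min at 25 °C. Non-specific binding defined with 10 μM WB-4101. Filter-bound radioactivity counted; percent inhibition of specific binding reported.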

T5 sequence (P50406 whole entry): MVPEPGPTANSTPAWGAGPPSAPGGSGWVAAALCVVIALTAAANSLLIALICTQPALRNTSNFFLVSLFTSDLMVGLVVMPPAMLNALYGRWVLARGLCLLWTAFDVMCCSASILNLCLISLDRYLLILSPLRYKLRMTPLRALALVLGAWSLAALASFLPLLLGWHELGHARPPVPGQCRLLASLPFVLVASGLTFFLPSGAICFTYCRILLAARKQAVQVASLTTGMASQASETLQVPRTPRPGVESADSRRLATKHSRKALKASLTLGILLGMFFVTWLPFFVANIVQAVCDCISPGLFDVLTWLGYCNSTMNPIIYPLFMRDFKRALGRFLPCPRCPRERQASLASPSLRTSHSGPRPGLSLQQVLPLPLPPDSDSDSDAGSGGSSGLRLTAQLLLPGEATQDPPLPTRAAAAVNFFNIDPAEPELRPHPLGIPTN
T3 sequence (P35367 whole entry): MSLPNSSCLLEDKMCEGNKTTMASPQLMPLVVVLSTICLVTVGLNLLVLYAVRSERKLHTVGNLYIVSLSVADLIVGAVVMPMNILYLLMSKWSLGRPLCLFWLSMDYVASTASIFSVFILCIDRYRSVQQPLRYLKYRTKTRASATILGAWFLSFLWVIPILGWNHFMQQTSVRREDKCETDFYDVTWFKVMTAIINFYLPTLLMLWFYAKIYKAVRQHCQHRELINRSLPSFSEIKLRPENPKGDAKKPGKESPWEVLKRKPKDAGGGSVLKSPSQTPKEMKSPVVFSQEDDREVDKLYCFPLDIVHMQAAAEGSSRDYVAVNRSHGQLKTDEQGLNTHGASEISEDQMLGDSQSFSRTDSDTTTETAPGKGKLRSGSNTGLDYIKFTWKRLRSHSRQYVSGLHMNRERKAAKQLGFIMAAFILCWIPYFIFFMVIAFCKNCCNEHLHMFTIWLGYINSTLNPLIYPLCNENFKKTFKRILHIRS
T1 sequence (P28223 whole entry): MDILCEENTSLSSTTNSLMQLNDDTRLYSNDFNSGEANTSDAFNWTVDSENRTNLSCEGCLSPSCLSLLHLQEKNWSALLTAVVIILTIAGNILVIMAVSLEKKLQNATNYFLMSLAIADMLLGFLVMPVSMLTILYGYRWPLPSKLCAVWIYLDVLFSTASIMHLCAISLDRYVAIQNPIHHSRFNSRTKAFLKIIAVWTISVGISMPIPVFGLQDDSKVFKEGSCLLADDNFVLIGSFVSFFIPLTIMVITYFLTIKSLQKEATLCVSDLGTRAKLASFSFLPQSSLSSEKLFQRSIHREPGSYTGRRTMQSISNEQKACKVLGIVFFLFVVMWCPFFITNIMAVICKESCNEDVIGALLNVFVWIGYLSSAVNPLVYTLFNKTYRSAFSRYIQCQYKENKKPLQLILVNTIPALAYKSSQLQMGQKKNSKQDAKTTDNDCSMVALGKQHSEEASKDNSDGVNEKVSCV
T6 sequence (P47898 whole entry): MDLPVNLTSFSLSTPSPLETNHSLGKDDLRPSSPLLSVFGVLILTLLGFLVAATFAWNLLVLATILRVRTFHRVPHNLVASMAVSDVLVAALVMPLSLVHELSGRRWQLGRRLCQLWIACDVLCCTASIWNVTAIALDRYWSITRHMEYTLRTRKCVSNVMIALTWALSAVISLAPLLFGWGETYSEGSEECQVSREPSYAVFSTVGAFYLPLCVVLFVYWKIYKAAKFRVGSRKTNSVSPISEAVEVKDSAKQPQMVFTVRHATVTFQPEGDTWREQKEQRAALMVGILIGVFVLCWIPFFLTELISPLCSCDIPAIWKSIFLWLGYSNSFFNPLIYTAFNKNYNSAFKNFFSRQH
T4 sequence (P34969 whole entry): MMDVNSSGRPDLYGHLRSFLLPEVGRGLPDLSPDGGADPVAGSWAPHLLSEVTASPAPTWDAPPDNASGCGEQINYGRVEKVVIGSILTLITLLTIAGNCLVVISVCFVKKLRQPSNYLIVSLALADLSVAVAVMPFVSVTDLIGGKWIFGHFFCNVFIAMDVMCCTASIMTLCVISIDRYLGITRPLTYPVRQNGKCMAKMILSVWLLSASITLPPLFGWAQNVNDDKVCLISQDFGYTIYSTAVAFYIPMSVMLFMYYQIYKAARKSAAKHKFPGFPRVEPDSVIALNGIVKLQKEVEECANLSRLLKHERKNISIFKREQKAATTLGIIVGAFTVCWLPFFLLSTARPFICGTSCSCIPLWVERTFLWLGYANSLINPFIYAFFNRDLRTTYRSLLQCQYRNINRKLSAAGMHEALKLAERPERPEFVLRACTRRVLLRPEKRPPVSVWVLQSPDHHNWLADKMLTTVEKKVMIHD
T7 sequence (P14416 whole entry): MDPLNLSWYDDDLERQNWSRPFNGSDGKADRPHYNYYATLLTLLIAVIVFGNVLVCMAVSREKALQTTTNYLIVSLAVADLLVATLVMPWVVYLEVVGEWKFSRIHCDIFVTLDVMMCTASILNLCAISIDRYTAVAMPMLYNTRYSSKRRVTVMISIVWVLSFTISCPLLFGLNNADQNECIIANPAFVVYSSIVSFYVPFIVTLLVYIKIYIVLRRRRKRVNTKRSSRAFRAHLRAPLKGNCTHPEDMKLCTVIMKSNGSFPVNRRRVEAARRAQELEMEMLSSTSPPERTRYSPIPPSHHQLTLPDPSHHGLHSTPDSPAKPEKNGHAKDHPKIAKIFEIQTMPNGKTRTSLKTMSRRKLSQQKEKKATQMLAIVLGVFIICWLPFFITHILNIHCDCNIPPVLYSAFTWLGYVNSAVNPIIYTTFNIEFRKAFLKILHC

SMILES: Cc1ccc2c(c1)c1c(n2-c2cccc(-c3c(C)noc3C)c2)CCN(C)C1 [Compound No. 65, 4-(3-(2,8-dimethyl-3,4-dihydro-1H-pyrido[4,3-b]indol-5(2H)-yl)phenyl)-3,5-dimethylisoxazole]
- inhibition at 0.1 µM [1]: 85%
- inhibition at 0.1 µM [2]: 57%
- inhibition at 1 µM [3]: 31%
- inhibition at 0.1 µM [4]: 46%
- inhibition at 0.1 µM [5]: 38%
- inhibition at 0.1 µM [6]: 63%
- inhibition at 1 µM [7]: 29%
- inhibition at 0.1 µM [8]: 8%

SMILES: CNC(=O)c1ccc(-c2ccccc2-n2c3c(c4cc(C)ccc42)CN(C)CC3)cc1 [Compound No. 72, 2′-(2,8-dimethyl-3,4-dihydro-1H-pyrido[4,3-b]indol-5(2H)-yl)-N-methylbiphenyl-4-carboxamide]
- inhibition at 0.1 µM [1]: 35%
- inhibition at 0.1 µM [2]: 16%
- inhibition at 1 µM [3]: 18%
- inhibition at 0.1 µM [4]: 30%
- inhibition at 0.1 µM [5]: 3%
- inhibition at 0.1 µM [6]: 14%
- inhibition at 1 µM [7]: 16%
- inhibition at 0.1 µM [8]: 1%

SMILES: Cc1csc(-c2ccccc2-n2c3c(c4cc(C)ccc42)CN(C)CC3)c1 [Compound 36]
- inhibition at 0.1 µM [1]: 80%
- inhibition at 0.1 µM [2]: 83%
- inhibition at 1 µM [3]: 16%
- inhibition at 0.1 µM [4]: 51%
- inhibition at 0.1 µM [5]: 13%
- inhibition at 0.1 µM [6]: 50%
- inhibition at 1 µM [7]: 22%
- inhibition at 0.1 µM [8]: 67%

SMILES: Cc1ccc2c(c1)c1c(n2-c2ccc3c(c2)CCN(C=O)C3)CCN(C)C1 [Compound No. 77, 6-(2,8-dimethyl-1,2,3,4-tetrahydro-pyrido[4,3-b]indol-5-yl)-3,4-dihydro-1H-isoquinoline-2-carbaldehyde]
- inhibition at 0.1 µM [1]: 36%
- inhibition at 0.1 µM [2]: 51%
- inhibition at 1 µM [3]: 35%
- inhibition at 0.1 µM [4]: 35%
- inhibition at 0.1 µM [5]: 5%
- inhibition at 0.1 µM [6]: 21%
- inhibition at 1 µM [7]: 14%
- inhibition at 0.1 µM [8]: 0%

SMILES: Cc1csc(-c2cccc(-n3c4c(c5cc(C)ccc53)CN(C)CC4)c2)c1 [Compound No. 63, 2,8-dimethyl-5-(3-(4-methylthiophen-2-yl)phenyl)-2,3,4,5-tetrahydro-1H-pyrido[4,3-b]indole]
- inhibition at 0.1 µM [1]: 101%
- inhibition at 0.1 µM [2]: 77%
- inhibition at 1 µM [3]: 31%
- inhibition at 0.1 µM [4]: 25%
- inhibition at 0.1 µM [5]: 5%
- inhibition at 0.1 µM [6]: 25%
- inhibition at 1 µM [7]: 19%
- inhibition at 0.1 µM [8]: 10%

SMILES: Cc1ccc2c(c1)c1c(n2-c2cscc2-c2cnn(C)c2)CCN(C)C1 [Compound 30]
- inhibition at 0.1 µM [1]: 92%
- inhibition at 0.1 µM [2]: 84%
- inhibition at 1 µM [3]: 23%
- inhibition at 0.1 µM [4]: 94%
- inhibition at 0.1 µM [5]: 33%
- inhibition at 0.1 µM [6]: 77%
- inhibition at 1 µM [7]: 4%
- inhibition at 0.1 µM [8]: 10%

SMILES: Cc1ccc2c(c1)c1c(n2-c2cccc(-c3cncc4ccccc34)c2)CCN(C)C1 [Compound No. 67, 5-(3-(isoquinolin-4-yl)phenyl)-2,8-dimethyl-2,3,4,5-tetrahydro-1H-pyrido[4,3-b]indole]
- inhibition at 0.1 µM [1]: 75%
- inhibition at 0.1 µM [2]: 23%
- inhibition at 1 µM [3]: 32%
- inhibition at 0.1 µM [4]: 28%
- inhibition at 0.1 µM [5]: 29%
- inhibition at 0.1 µM [6]: 39%
- inhibition at 1 µM [7]: 61%
- inhibition at 0.1 µM [8]: 8%

SMILES: Cc1ccc2c(c1)c1c(n2-c2ccc(-c3cccnc3)cn2)CCN(C)C1 [Compound No. 133, 5-(3,3′-bipyridin-6-yl)-2,8-dimethyl-2,3,4,5-tetrahydro-1H-pyrido[4,3-b]indole]
- inhibition at 0.1 µM [1]: 86%
- inhibition at 0.1 µM [2]: 92%
- inhibition at 1 µM [3]: 6%
- inhibition at 0.1 µM [4]: 21%
- inhibition at 0.1 µM [5]: 10%
- inhibition at 0.1 µM [6]: 6%
- inhibition at 1 µM [7]: 11%
- inhibition at 0.1 µM [8]: 0%

SMILES: CNC(=O)c1ccc(-c2ccccc2-n2c3c(c4cc(C)ccc42)CN(C)CC3)cn1 [Compound No. 71, 5-(2-(2,8-dimethyl-3,4-dihydro-1H-pyrido[4,3-b]indol-5(2H)-yl)phenyl)-N-methylpicolinamide]
- inhibition at 0.1 µM [1]: 1%
- inhibition at 0.1 µM [2]: 15%
- inhibition at 1 µM [3]: 18%
- inhibition at 0.1 µM [4]: 27%
- inhibition at 0.1 µM [5]: -7%
- inhibition at 0.1 µM [6]: 29%
- inhibition at 1 µM [7]: 10%
- inhibition at 0.1 µM [8]: -1%

SMILES: Cc1ccc2c(c1)c1c(n2-c2ccc(-c3ccc(S(N)(=O)=O)cc3)cn2)CCN(C)C1 [Compound No. 145, 4-(6-(2,8-dimethyl-3,4-dihydro-1H-pyrido[4,3-b]indol-5(2H)-yl)pyridin-3-yl)benzenesulfonamide]
- inhibition at 0.1 µM [1]: 82%
- inhibition at 0.1 µM [2]: 66%
- inhibition at 1 µM [3]: 17%
- inhibition at 0.1 µM [4]: 32%
- inhibition at 0.1 µM [5]: -11%
- inhibition at 0.1 µM [6]: 15%
- inhibition at 1 µM [7]: 8%
- inhibition at 0.1 µM [8]: 6%

SMILES: Cc1ccc2c(c1)c1c(n2-c2ccccc2-c2cnc(N(C)C)nc2)CCN(C)C1 [Compound 31]
- inhibition at 0.1 µM [1]: 27%
- inhibition at 0.1 µM [2]: 15%
- inhibition at 1 µM [3]: 3%
- inhibition at 0.1 µM [4]: -2%
- inhibition at 0.1 µM [5]: 20%
- inhibition at 0.1 µM [6]: 8%
- inhibition at 1 µM [7]: 12%
- inhibition at 0.1 µM [8]: 12%

SMILES: Cc1ccc2c(c1)c1c(n2-c2cscc2-c2ccc(C)s2)CCN(C)C1 [Compound No. 79]
- inhibition at 0.1 µM [1]: 77%
- inhibition at 0.1 µM [2]: 92%
- inhibition at 1 µM [3]: 61%
- inhibition at 0.1 µM [4]: 98%
- inhibition at 0.1 µM [5]: 50%
- inhibition at 0.1 µM [6]: 93%
- inhibition at 1 µM [7]: 30%
- inhibition at 0.1 µM [8]: 77%

SMILES: Cc1ccc2c(c1)c1c(n2-c2cccc(-c3ccc(C)nc3)c2)CCN(C)C1 [Compound 60, 2,8-dimethyl-5-(3-(6-methylpyridin-3-yl)phenyl)-2,3,4,5-tetrahydro-1H-pyrido[4,3-b]indole]
- inhibition at 0.1 µM [1]: 102%
- inhibition at 0.1 µM [2]: 53%
- inhibition at 1 µM [3]: 32%
- inhibition at 0.1 µM [4]: 41%
- inhibition at 0.1 µM [5]: 3%
- inhibition at 0.1 µM [6]: 62%
- inhibition at 1 µM [7]: 24%
- inhibition at 0.1 µM [8]: 21%

SMILES: Cc1ccc2c(c1)c1c(n2-c2cscc2-c2cccc3[nH]ncc23)CCN(C)C1 [Compound 41]
- inhibition at 0.1 µM [1]: 84%
- inhibition at 0.1 µM [2]: 91%
- inhibition at 1 µM [3]: 28%
- inhibition at 0.1 µM [4]: 96%
- inhibition at 0.1 µM [5]: 36%
- inhibition at 0.1 µM [6]: 94%
- inhibition at 1 µM [7]: 24%
- inhibition at 0.1 µM [8]: 55%

Reference: patent publication US9187471B2, “Pyrido [4,3-b] indole and pyrido [3,4-b] indole derivatives and methods of use” (Medivation Technologies, Inc., priority 2010, dated 2015)
